Data as given in patent US6521655B1, “Substituted imidazoles useful in the treatment of inflammatory diseases” (Ortho-McNeil Pharmaceutical, Inc., priority 1997, dated 2003).

Legend:
[1] = tested on: TNF-α; assay: in vitro whole cell assay, LPS-stimulated PBMC, TNF-α ELISA; format: cell-based; details: LPS-stimulated human PBMC
Method: Aside from the enzyme assay, many of the compounds of the invention were tested in an in vitro whole cell assay using peripheral blood mononuclear cells (“PBMC”) which were obtained from human blood as follows. Freshly obtained venous blood was anticoagulated with heparin, diluted with an equal volume of phosphate buffered saline (“PBS”) and placed in a sterile tube or other container. Aliquots (30 mL) of this mixture were transferred to centrifuge tubes which were underlaid with Ficoll-Hypaque (15 mL). The prepared tubes were centrifuged at 400×g without braking for 30 min at room temperature. Approximately ½ to ⅔ of the platelet layer above the mononuclear cell band was removed with a pipette. The majority of the mononuclear cell layer was carefully removed using a pipette and these PBMCs were diluted with PBS and spun at 600×g for 15 min. […] A small volume of the suspension was removed for counting on a hemocytometer and the remaining preparation was centrifuged at 200×g for 15 min at room temperature. The recovered pelleted PMBC were resuspended in RPMI/1% FCS to a concentration of 1.67×10^6/mL. To run the assay, the PBMC suspension (180 μL) was transferred to duplicate wells of a 96-well flat-bottom microtiter plate and incubated for 1 h at 37° C. […] A solution (10 μL) of LPS in RPMI/1% FCS (200 ng/mL) was added and the wells were incubated overnight at 37° C. The supernate ([…]) was removed from each well and diluted with RPMI/1% FCS (400 μL). The samples were analyzed for TNF-α using a commercial ELISA kit (Genzyme).

[2] = tested on: TNF-α; assay: in vivo LPS induced TNF-α production, rats; parameters: species or system rats (Lewis males); details: 25 mg/kg, oral, LPS 1 mg/kg i.p.
Method: (§1) Thirty minutes after dosing, the animals were injected intraperitoneally with LPS at 1 mg/kg and returned to their cages for 1 h. Animals were anesthetized by CO2, exsanguinated by cardiac puncture and whole blood collected (0.1-0.7 mL). The blood was allowed to clot and serum was transferred to a centrifuge tube. This sample was centrifuged, serum was collected, aliquoted and frozen at −80° C. Samples were tested by commercial ELISAs for TNF-α (Endogen for mouse TNF-α and Biosource for rat TNF-α).

[3] = tested on: IL-1β; assay: in vitro IL-1β assay, plastic-adherent cells from PBMC, LPS stimulation, ELISA; format: cell-based; details: Homo sapiens, read-out: inhibition of production of IL-1β, IC50
Method: The IL-1β activity of select compounds of the invention was determined by the following in vitro assay. Plastic-adherent cells were prepared from PBMC. Briefly, PBMCs were added to the wells of a 96-well plate as above, incubated for 1 h at 37° C., and the adherent cells prepared by gently resuspending the non-adherent cells with a pipettor, removing and discarding them and gently washing the wells 3 times with 200 μL culture medium. Additional culture medium (180 μL) was added to the wells after the final wash. Compound addition, LPS stimulation, incubation and supernate harvest were as for TNF-α. Supernates were assayed for interleukin-1β using a commercial ELISA (Genzyme).

[4] = tested on: TNF-α; assay: in vivo LPS induced TNF-α production, mice; parameters: species or system Mice (BALB/cJ females); details: 25 mg/kg, oral, LPS 1 mg/kg i.p.
Method: as §1

[5] = target: T1, purified recombinant p38 (Homo sapiens, UniProt Q16539); assay: p38 in vitro enzyme assay (33P-ATP, myelin basic protein substrate); format: biochemical; details: for IC50: read-out: p-38 IC50
T1 construct: 6xHis; made in house; host or cells: E. coli
Method: As discussed previously, agents which inhibit the activity of the enzyme p38, inhibit the production of the inflammatory cytokines TNF-α, and IL-1β. Compounds of the invention were measured for their ability to inhibit the activity of p38 by the following in vitro assay.
A solution (38 μL) of purified recombinant p38 (where the amount of enzyme was determined empirically considering the linear range of the assay and the acceptable signal to noise ratio; 6×His-p38 expressed in E.coli), myelin basic protein substrate (also determined empirically), a buffer of pH 7.5 (Hepes:25 mM, MgCl2:10 mM, MnCl2:10 mM) were added to 92 wells of a 96-well round bottom polypropylene plate. The remaining wells were used for control (“CTRL”) and background (“BKG”). The CTRL was prepared with the enzyme, substrate buffer and 2% DMSO, and the BKG was prepared with substrate buffer and 2% DMSO. A solution (12 μL) of the test compound in DMSO (compounds were diluted to 125 μM in 10% DMSO/H2O and assayed at 25 μM where the final DMSO concentration was 2%) was added to the testing wells. The ATP/^33P-ATP solution (10 μL: containing 50 μM unlabeled ATP and 1 μCi ^33P-ATP) was added to all wells and the completed plates were mixed and incubated at 30° C. for 30 min. Ice-cold 50% TCA/10 mM sodium phosphate (60 μL) were added to each well and the plates were kept on ice for 15 min. The contents of each well were transferred to the wells of a 96-well filterplate (Millipore, MultiScreen-DP) and the filterplate was placed on a vacuum manifold, fitted with a waste collection tray. The wells were washed five times with 10% TCA/10 mM sodium phosphate (200 μL) under vacuum. MicroScint-20 scintillant was added, the plates were sealed using Topseal-S sheets and counted in a Packard TopCount scintillation counter using a ^33P liquid program with color quench correction, where the output is in color quench-corrected cpm. The % inhibition of the test compounds was calculated by the following formula: % inhibition=[1−(sample -BKG)/(CTRL-BKG)]×100.
Although compounds were initially tested at […], if warranted the compounds were tested at 4-fold increments above and below that concentration. In addition, IC50s were calculated for some compounds using the Deltagraph 4-parameter curve fitting program.

T1 sequence (Q16539 whole entry): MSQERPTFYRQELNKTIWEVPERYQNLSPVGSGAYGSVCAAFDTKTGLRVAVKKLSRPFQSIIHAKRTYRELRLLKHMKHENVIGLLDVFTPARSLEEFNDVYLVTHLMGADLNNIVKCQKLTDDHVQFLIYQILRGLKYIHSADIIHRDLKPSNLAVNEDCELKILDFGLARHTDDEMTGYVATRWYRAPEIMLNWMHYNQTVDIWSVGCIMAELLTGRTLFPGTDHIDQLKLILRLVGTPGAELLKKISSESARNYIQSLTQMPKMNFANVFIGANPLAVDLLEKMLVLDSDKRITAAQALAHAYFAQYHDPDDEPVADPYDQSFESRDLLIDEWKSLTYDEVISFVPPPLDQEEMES

| SMILES | IC50 [1] | other results |
| --- | --- | --- |
| N#CC=Cc1nc(-c2ccc(F)cc2)c(-c2ccncc2)[nH]1 [compound 46] | 250 nM | – |
| CC(=O)OCCC#Cc1nc(-c2ccc(F)cc2)c(-c2ccncc2)n1CCCc1ccccc1 [compound 52] | 2.6 nM | – |
| O=C(OCCC#Cc1nc(-c2ccc(F)cc2)c(-c2ccncc2)n1CCCc1ccccc1)c1ccccc1 [compound 50] | 2 nM | – |
| OCCC#Cc1nc(-c2ccc(F)cc2)c(-c2ccncc2)n1CCCc1ccccc1 [Cpd. 4] | 3 nM | % Inhibition TNF-α Rats [2]: 91%; IC50 [3]: 7 nM; % Inhibition TNF-α Mice [4]: 49.6%; IC50 [5]: 650 nM |
| O/N=C/c1nc(-c2ccncc2)c(-c2ccc(F)cc2)[nH]1 [compound 13] | 45 nM | – |
| O=[N+]([O-])c1ccc(CON=Cc2nc(-c3ccc(F)cc3)c(-c3ccncc3)[nH]2)cc1 [compound 33] | 150 nM | – |
| Fc1ccc(-c2[nH]c(/C=C/Cl)nc2-c2ccncc2)cc1 [compound 8] | – | IC50 [5]: 1500 nM |
| C[Si](C)(C)CCOCn1c(C#CCCO)nc(-c2ccncc2)c1-c1ccc(F)cc1 [compound 20] | > 10000 nM | – |
| N#CCCCC#Cc1nc(-c2ccc(F)cc2)c(-c2ccncc2)n1CCCc1ccccc1 [compound 36] | 9 nM | IC50 [3]: 13 nM; % Inhibition TNF-α Mice [4]: 69.3%; IC50 [5]: 1500 nM |
| C=CC#Cc1nc(-c2ccc(F)cc2)c(-c2ccncc2)n1CCCc1ccccc1 [compound 51] | 5.5 nM | – |
| C[Si](C)(C)CCOCn1c(C#CCCCN2C(=O)CCC2=O)nc(-c2ccc(F)cc2)c1-c1ccncc1 [compound 45] | 650 nM | – |
| O=C(Nc1ccccc1)OCCC#Cc1nc(-c2ccc(F)cc2)c(-c2ccncc2)n1CCCc1ccccc1 [compound 15] | 38 nM | – |
| OCCC#Cc1nc(-c2ccc(F)cc2)c(-c2ccncc2)[nH]1 [compound 21] | 80 nM | – |
| Fc1ccc(-c2nc(C=NOCc3ccccc3)[nH]c2-c2ccncc2)cc1 [compound 32] | 80 nM | – |
| CCCC#Cc1nc(-c2ccncc2)c(-c2ccc(F)cc2)[nH]1 [compound 28] | 80 nM | % Inhibition TNF-α Mice [4]: 88% |
| C[Si](C)(C)CCOCn1c(C=C(Br)Br)nc(-c2ccc(F)cc2)c1-c1ccncc1 [compound 18] | 1500 nM | – |
| OCCCC#Cc1nc(-c2ccc(F)cc2)c(-c2ccncc2)n1CCCc1ccccc1 [compound 35] | 8 nM | % Inhibition TNF-α Mice [4]: 68%; p-38 % inhibition ([5]; @ 20 μm): 99% @ 20 μm |
| Fc1ccc(-c2nc(C=C(Br)Br)[nH]c2-c2ccncc2)cc1 [compound 44] | 200 nM | p-38 % inhibition ([5]; @ 20 μm): 93% @ 20 μm |
| CCCC#Cc1nc(-c2ccc(F)cc2)c(-c2ccncc2)n1CCCc1ccccc1 [compound 34] | 10 nM | % Inhibition TNF-α Mice [4]: 53% |

| SMILES | IC50 [1] | other results |
| --- | --- | --- |
| Fc1ccc(-c2nc(C#CCCCl)n(CCCc3ccccc3)c2-c2ccncc2)cc1 [compound 16] | 6 nM | – |
| Fc1ccc(-c2nc(C#CCCCc3ccccc3)n(CCCc3ccccc3)c2-c2ccncc2)cc1 [compound 38] | 40 nM | – |
| O=C1c2ccccc2C(=O)N1CCCn1c(C#CCCO)nc(-c2ccc(F)cc2)c1-c1ccncc1 [compound 37] | 160 nM | – |
| CCCC#Cc1nc(-c2ccncc2)c(-c2ccc(F)cc2)n1COCC[Si](C)(C)C [compound 26] | > 2000 nM | % Inhibition TNF-α Mice [4]: 0% |
| C#Cc1nc(-c2ccc(F)cc2)c(-c2ccncc2)[nH]1 [compound 30] | 150 nM | – |
| Fc1ccc(-c2nc(C#CBr)[nH]c2-c2ccncc2)cc1 [compound 31] | 250 nM | – |
| Fc1ccc(-c2nc(C#CCCCCl)n(CCCc3ccccc3)c2-c2ccncc2)cc1 [compound 14] | 4 nM | – |
| C[Si](C)(C)CCOCn1c(C=C(Br)Br)nc(-c2ccncc2)c1-c1ccc(F)cc1 [compound 10] | – | p-38 % inhibition ([5]; @ 5 μm): 16% @ 5 μm |
| OCCCC#Cc1nc(-c2ccc(F)cc2)c(-c2ccncc2)[nH]1 [compound 19] | 85 nM | % Inhibition TNF-α Mice [4]: 29% |
| O=C1c2ccccc2C(=O)N1CCCC#Cc1nc(-c2ccc(F)cc2)c(-c2ccncc2)[nH]1 [compound 22] | 700 nM | – |
| CCCCSCCCC#Cc1nc(-c2ccc(F)cc2)c(-c2ccncc2)n1CCCc1ccccc1 [compound 39] | 200 nM | – |
| CN(C)CCC#Cc1nc(-c2ccc(F)cc2)c(-c2ccncc2)n1CCCc1ccccc1 [compound 17] | 3 nM | – |
| COCCC#Cc1nc(-c2ccc(F)cc2)c(-c2ccncc2)n1CCCc1ccccc1 [compound 49] | 3 nM | – |
| OCCCCC#Cc1nc(-c2ccc(F)cc2)c(-c2ccncc2)n1CCCc1ccccc1 [compound 43] | 5.2 nM | % Inhibition TNF-α Mice [4]: 53%; p-38 % inhibition ([5]; @ 20 μm): 98% @ 20 μm |
| CCCCS(=O)(=O)CCCC#Cc1nc(-c2ccc(F)cc2)c(-c2ccncc2)n1CCCc1ccccc1 [compound 40] | 6.5 nM | – |
| O=C1c2ccccc2C(=O)N1CCCC#Cc1nc(-c2ccncc2)c(-c2ccc(F)cc2)[nH]1 [compound 29] | 200 nM | – |
| OCC#Cc1nc(-c2ccc(F)cc2)c(-c2ccncc2)n1CCCc1ccccc1 [compound 47] | 7.2 nM | – |
| OCCCCC#Cc1nc(-c2ccc(F)cc2)c(-c2ccncc2)[nH]1 [compound 24] | 100 nM | % Inhibition TNF-α Mice [4]: 73% |
